Source: US12187705B2, “Heteroaryl-triazole and heteroaryl-tetrazole compounds as pesticides” (Bayer Aktiengesellschaft, priority 2018, dated 2025)

Tests used:
Assay type in all cases: in vivo
Ctenocephalides felis [1] = experiment: Ctenocephalides felis in-vitro contact test adult cat flea; details: 5 μg/cm^2 (=500 g/ha), after 48 hours; for pest or weed control at 5 µg/cm2, 5 µg/cm2: Ctenocephalides felis, read-out: efficacy (fleas dead or moribund)
How it was run: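 Compound in acetone was coated on glass tube walls, giving 5 μg/cm^2 at 900 ppm. 5-10 adult cat fleas were held at room temperature for 48 h, then heat-challenged at 45-50° C. Fleas immotile or uncoordinated were scored dead/moribund, expressed as % efficacy.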

Diabrotica balteata = Diabrotica balteata spray test; details: 160 μg/well, wheat seeds, after 7 days; for pest or weed control at 160 µg/disc, 160 µg/well: Diabrotica balteata, 168 h, read-out: efficacy (seedlings grown)
How it was run: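 Wheat seeds germinated 1 day on agar were sprayed with compound diluted in water with 1000 ppm emulsifier, then infested with 10-20 Diabrotica balteata larvae. Efficacy in % scored after 7 days: 100% = seedlings grown as untreated, uninfected control; 0% = no seedlings grown.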

Myzus persicae = Myzus persicae oral test; details: 120 h
How it was run: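 Feeding test: compound diluted in water was combined with IPL41 insect medium (33%+15% sugar) under a parafilm seal. A mixed population of green peach aphids fed through the membrane. Mortality (%) was scored after 5 days.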

Nezara viridula = Nezara viridula spray test; details: in Hordeum vulgare, 96 h
How it was run: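 Barley plants infested with stink bug larvae were sprayed with compound diluted in water containing 1000 ppm emulsifier. Mortality (%) was scored after 4 days, 100% meaning all bugs killed.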

Nilaparvata lugens = Nilaparvata lugens spray test; details: Nilaparvata lugens, in Oryza sativa, 96 h
How it was run: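 Rice plants sprayed with compound diluted in water containing 1000 ppm emulsifier, then infested with brown planthopper. Mortality (%) scored after 4 days, 100% meaning all insects killed.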

Phaedon cochleariae = Phaedon cochleariae spray test; details: foliar, 168 h, Chinese cabbage leaf disks, after 7 days
Procedure: Phaedon cochleariae—Spray Test
(§1) To produce a suitable preparation of active compound, 1 part by weight of active compound is mixed with the stated amount of solvents and is diluted with water, containing an emulsifier concentration of 1000 ppm, to the desired concentration. Further test concentrations are prepared by dilution with emulsifier containing water.
Chinese cabbage (Brassica pekinensis) leaf disks are sprayed with a preparation of the active ingredient of the desired concentration. Once dry, the leaf disks are infested with mustard beetle larvae (Phaedon cochleariae).
After 7 days mortality in % is determined. 100% means all beetle larvae have been killed and 0% means none of the beetle larvae have been killed.

Spodoptera frugiperda = Spodoptera frugiperda spray test; details: in Zea mays, 168 h
How it was run: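 Compound mixed with solvent, diluted with 1000 ppm emulsifier water to test concentrations; sprayed on maize leaf pieces; dried; larvae added; mortality (%) scored at 7 d.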

Tetranychus urticae = Tetranychus urticae spray test OP-resistant; details: French bean leaf disks, after 6 days; for mortality at 500 g/ha: Tetranychus urticae, foliar, 144 h; for mortality: 500 g/ha
Procedure: Tetranychus urticae—Spray Test OP-Resistant
as §1
French bean (Phaseolus vulgaris) leaf disks infected with all instars of the two spotted spidermite (Tetranychus urticae), are sprayed with a preparation of the active ingredient of the desired concentration.
After 6 days mortality in % is determined. 100% means all spider mites have been killed and 0% means none of the spider mites have been killed.

Rhipicephalus sanguineus = Rhipicephalus sanguineus in-vitro contact test with adult brown dog ticks; details: 5 μg/cm^2 (=500 g/ha), after 48 hours
Procedure: Rhipicephalus sanguineus—In-Vitro Contact Test with Adult Brown Dog Ticks
9 mg compound is solved in 1 ml acetone and diluted with acetone to the desired concentration. 250 μl of the test solution is filled in 25 ml glass test tubes and homogeneously distributed on the inner walls by rotation and tilting on a shaking device (2 h at 30 rpm). With a compound concentration of 900 ppm, an inner surface of 44.7 cm^2 and a homogeneous distribution, a dose of 5 μg/cm^2 is achieved.
After the solvent has evaporated, each test tube is filled with 5-10 adult brown dog ticks (Rhipicephalus sanguineus), closed with a perforated lid and incubated in a lying position at room temperature and relative humidity. After 48 hours efficacy is determined. The ticks are patted on the ground of the tubes and are incubated on a heating plate at 45-50° C. for at most 5 minutes. Immotile or uncoordinated moving ticks, which are not able to escape the heat by climbing upwards, are marked as dead or moribund.
An efficacy of 100% means all ticks are dead or moribund; 0% means no ticks are dead or moribund.

Boophilus microplus = Boophilus microplus injection test; details: 20 μg/animal, egg deposition after 7 days
How it was run: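 Engorged adult female ticks, five per dose, received 1 μl of compound in DMSO injected into the abdomen and were kept in a climate chamber. Fertile egg deposition was checked after 7 days, with eggs of unclear fertility held until hatching at about 42 days. Efficacy 100% = all eggs infertile, 0% = all fertile.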

[2] = system: cattle ticks (Boophilus microplus) strane Parhurst, SP-resistant; experiment: Boophilus microplus dip test; details: 100 ppm, egg deposition after 7 days
Procedure: Boophilus microplus—Dip Test
Test animal: cattle ticks (Boophilus microplus) strane Parhurst, SP-resistant
Solvent: dimethyl sulfoxide
To produce a suitable preparation of active compound, 10 mg of active compound are dissolved in 0.5 ml solvent, and the concentrate is diluted with water to the desired concentration.
This compound solution is pipetted into tubes. 8-10 engorged, adult, female cattle ticks (Boophilus microplus) are placed in perforated tubes. These tubes are immersed in the aqueous compound solution until the ticks are completely moistened. After the liquid has drained off, the ticks are transferred to a filter paper in a plastic tray and stored in a climate chamber.
After 7 days egg deposition of fertile eggs is monitored. Eggs where fertility is not visible are stored in a climate chamber till hatching after about 42 days. An efficacy of 100% means all eggs are infertile; 0% means all eggs are fertile.

Ctenocephalides felis [3] = experiment: Ctenocephalides felis oral test
How it was run: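 About 20 adult unfed fleas fed through parafilm on cattle blood containing compound (DMSO concentrate diluted in blood); blood held at 37° C., fleas at room temperature. Mortality in % scored after 2 days (100% = all killed).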

SMILES	pest or weed control at 160 µg/disc, 160 µg/well (Diabrotica balteata) [%]	mortality at 4 ppm (Myzus persicae) [%]	mortality at 20 ppm (Myzus persicae) [%]	mortality at 500 g/ha (Nezara viridula) [%]	mortality at 500 g/ha (Nilaparvata lugens) [%]	mortality at 500 g/ha (Phaedon cochleariae) [%]	mortality at 500 g/ha (Tetranychus urticae) [%]	other results
CC(c1ncnn1-c1ncccn1)N(CC1CC1)C(=O)c1cccc(S(=O)(=O)C(F)(F)F)c1 (centres unmarked) [Example I-005, N-(cyclopropylmethyl)-N-{1-[1-(pyrimidin-2-yl)-1H-1,2,4-triazol-5-yl]ethyl}-3-[(trifluoromethyl)sulfonyl]benzamide]	100	90	100	100	100	100	80	pest or weed control at 5 µg/cm2, 5 µg/cm2 (Ctenocephalides felis [1]): 90%; mortality at 500 g/ha (Spodoptera frugiperda): 100%
CC(c1ncnn1-c1ncccn1)N(CC1CC1)C(=O)c1cc(C2CC2)cc(C(F)(F)F)c1 (centres unmarked) [Example I-008]	100	100	100	100	100	100	95	mortality at 500 g/ha (Spodoptera frugiperda): 100%
CC(NC(=O)c1cncc(-c2ccc(Cl)cc2)c1)c1ncnn1-c1ncccn1 (centres unmarked) [Example I-112]								mortality (Tetranychus urticae): 90%
CC(NC(=O)c1cc(Cl)cc(S(C)(=O)=O)c1)c1ncnn1-c1ncc(F)cn1 (centres unmarked) [Example I-036]								efficacy (fleas dead or moribund) (Ctenocephalides felis [1]): 100%; efficacy (ticks dead or moribund) (Rhipicephalus sanguineus): 80%; efficacy (infertile eggs) (Boophilus microplus): 100%; efficacy (infertile eggs) [2]: 90%; efficacy (seedlings grown) (Diabrotica balteata): 100%
CC(c1ncnn1-c1ncccn1)N(CC1CC1)C(=O)c1cncc(S(=O)(=O)C(F)(F)F)c1 (centres unmarked) [Example I-006]	100	90	100	100	100	100	95	pest or weed control at 5 µg/cm2, 5 µg/cm2 (Ctenocephalides felis [1]): 90%; pest or weed control at 5 µg/cm2, 5 µg/cm2 (Rhipicephalus sanguineus; Rhipicephalus sanguineus, read-out: efficacy (ticks dead or moribund)): 80%; pest or weed control at 0.02 mg (Boophilus microplus; Rhipicephalus microplus, 168 h, read-out: efficacy (infertile eggs)): 100%; mortality at 100 ppm (Ctenocephalides felis [3]; Ctenocephalides felis, in Bos taurus, po, 48 h): 100%
Cc1nc(C(C)NC(=O)c2cc(Cl)cc(S(C)(=O)=O)c2)n(-c2ncccn2)n1 (centres unmarked) [Example I-034]								efficacy (fleas dead or moribund) (Ctenocephalides felis [1]): 100%; efficacy (ticks dead or moribund) (Rhipicephalus sanguineus): 80%; efficacy (infertile eggs) (Boophilus microplus): 100%; efficacy (infertile eggs) [2]: 100%; efficacy (seedlings grown) (Diabrotica balteata): 100%
CC(NC(=O)c1ccc(S(=O)(=O)C(F)(F)F)cc1)c1ncnn1-c1ncccn1 (centres unmarked) [Example I-056]								mortality (Ctenocephalides felis [3]; 100 ppm in cattle blood, after 2 days): 90%; mortality (Tetranychus urticae): 90%
